The values below come from US9408816B2, “Method of using histone deacetylase inhibitors and monitoring biomarkers in combination therapy” (Pharmacyclics LLC, priority 2006, dated 2016).

The test system of experiment [1] is RAD51 transcript in HCT116 cells. The experiment in a line: RAD51 transcript levels by real time PCR in HCT116 cells. In kind it is cell-based. To be noted: by 24 hours, HCT-116 in vitro.
The subject of experiment [2] is RAD51 mRNA in HH cell line. The experiment in a line: RAD51 mRNA by Taqman RT-PCR in HH cell line. In kind it is cell-based. As to conditions: 24 hours. As to the method:
(§1) Tagman Gene Expression Assays: 10 lymphoma cell lines were treated with PCI-24781 for various times and total RNA was isolated and quantitated. Taqman assays were set up using the Taqman master mix (Applied Biosystems) and 50 ng of total RNA as template. Gene expression assay probe sets for RAD51 was purchased from Applied Biosystems.
(§2) Cell lines were treated with 3-((dimethylamino)methyl)-N-(2-(4-(hydroxycarbamoyl)phenoxy)ethyl)benzofuran-2-carboxamide for 24 hours, and RAD51 mRNA was analyzed by Taqman RT-PCR.
(In qPCR the cycle at which signal appears reflects the starting amount.)

Experiment [3] deals with RAD51 mRNA in lymphoma cell lines. The experiment in a line: RAD51 mRNA by Taqman RT-PCR in lymphoma cell lines. The format is cell-based. As for the experimental part:
as §1, §2

Experiment [4] concerns RAD51 in HCT-116 mouse xenografts. The experiment in a line: RAD51 levels in HCT-116 xenograft tumors. To be noted: HCT-116, in vivo (not shown). As to the method: Also shown are RAD51 levels and actin levels after extraction of tumor from HCT-116 mouse xenografts with different dosing regimens. 1× animals received a single oral dose 4 hours before the end of the study; 2× animals received one oral dose 28 hours before the end of the study and received a second dose 6 hours later; 3× animals were dosed as in the 2× but also received a third dose the following morning, 24 hours after the first dose was administered and 4 hours before the end of the study. Fold changes in protein levels were quantitated by using Odyssey software and were normalized to the levels of the actin loading control.
3-((dimethylamino)methyl)-N-(2-(4-(hydroxycarbamoyl)phenoxy)ethyl)benzofuran-2-carboxamide pretreatment for 24 hours also lead to complete loss of RAD51 foci in the nuclei of irradiated HCT-116 cells (not shown; see Adimoolam et al. 2007, PNAS epub Nov. 27 the experiment, which is herein incorporated by reference).

Experiment [5] relates to RAD51 protein in NHL cell lines. The experiment in a line: RAD51 protein downregulation in Non-Hodgkins lymphoma cell lines (Western blot). The format is cell-based. As to conditions: 24 hours, most of the cell lines tested. As to the method:
(§3) Western Blot Analysis: Cell lines [al NHL except for Jurkat (T-cll leukemia) and K562 (CML)] were treated with PCI-24781 for the designated times, lysed and total protein was quantitated and western blot analysis performed. RAD51 and Actin antibodies were from Santa Cruz.
For orientation: In western blotting, separated proteins are transferred to a membrane and probed.

The subject of experiment [6] is RAD51 protein in HH cutaneous T-cell lymphoma cell line. The experiment in a line: RAD51 protein downregulation in HH cell line (Western blot). In kind it is cell-based. To be noted: 24 hours. As for the experimental part: as §3
The next experiment has as its system HH lymphoma line. The experiment in a line: Apoptosis by Annexin V-FITC flow cytometry in HH line. In kind it is cell-based. As to the method: (§4) 3-((dimethylamino)methyl)-N-(2-(4-(hydroxycarbamoyl)phenoxy)ethyl)benzofuran-2-carboxamide induced apoptosis in lymphoma cell lines after a 48 hour incubation measured by Annexin V-FITC flow cytometry. […] Thus, both the initial level of RAD51 in tumors as well as the fold decrease after treatment are predictive for 3-((dimethylamino)methyl)-N-(2-(4-(hydroxycarbamoyl)phenoxy)ethyl)benzofuran-2-carboxamide activity, and in some embodiments is used as biomarkers in clinical studies to identify patients most likely to respond to 3-((dimethylamino)methyl)-N-(2-(4-(hydroxycarbamoyl)phenoxy)ethyl)benzofuran-2-carboxamide.
On the technique in general: A flow cytometer gives signals particle by particle.

The test system of another experiment is RAD51 in HCT116 cells. The experiment in a line: RAD51 protein levels by Western blotting in HCT116 cells. In kind it is cell-based. As to conditions: by 24 hours, HCT-116 in vitro. As to the method:
(§5) To explore this further, we analyzed levels of RAD51, an essential protein in HR, by Western blotting and immunofluorescence. Following exposure of HCT116 cells to doses of the test compound ranging from 0.2 μM to 2.0 μM, RAD51 levels decreased to 20% of control by 24 hr, but remained unchanged at 6 hr. […] Finally, RAD51 nuclear foci were visualized following γ-irradiation.
For determination of protein levels by Western blot, cellular extracts are prepared as follows. Cells are harvested by scraping; washed with PBS and pelleted by centrifugation. Cell pellets (from 100 mm plate) are resuspended with 200 μl B3 buffer containing protease inhibitors shaken at 4° C. for 10 min and centrifuge at 12,000 rpm at 4° C. in Tomy microcentrifuge for 10 minutes. To make 1 liter of B3 buffer, add 1 ml of NP-40, 50 ml of 5 M NaCl, 10 ml of […], 50 ml of 1 M Tris HCl at pH7.5 to 889 ml dH2O. The day of cell harvest protease inhibitors are added to B3 buffer (aprotinin, leupeptin and pepstatin to a final concentration of 2 μg/ml, 5 μg/ml and 0.7 μg/ml, respectively). […] Sample protein concentrations are determined by the Bradford Assay (BioRad; Richmond, Calif.). […]
Western Blot Analysis: Cell lines [al NHL except for Jurkat (T-cll leukemia) and K562 (CML)] were treated with PCI-24781 for the designated times, lysed and total protein was quantitated and western blot analysis performed. […]

The subject of experiment [7] is RAD51 foci in irradiated HCT-116 cells. The experiment in a line: RAD51 nuclear foci following γ-irradiation. The format is cell-based. As to conditions: pretreatment for 24 hours. As for the experimental part: as §5
Monolayer cultures of different cells are grown in Dulbecco's MEM medium supplemented with 10% fetal bovine serum and antibiotics. The cells are detached from culture flasks by gentle trypsinization, pelleted and resuspended in phosphate buffered saline (PBS; 136 mM NaCl, 2 mM KCG, 10.6 mM NaHPO4, 1.5 mM KH2PO4 [pH 7.3]) prewarmed at 37° C. (Haaf, et al., 1995, Proc. Natl. Acad. Sci. USA 92: 2298-2302). Cultured cells are washed and resuspended in PBS. The density of somatic cells is adjusted to about 10^5 cells per ml in PBS. Aliquots (0.5 ml) of the cell suspension are centrifuged onto clean glass slides at 800 rpm for 4 min, in a Cytospin (Shandon, Pittsburg). Immediately after cytocentrifugation, the slides are fixed in −20° C. methanol for 30 min and then immersed in ice-cold acetone for a few seconds to permealize the cells for antibody staining. […]

In the next experiment the test system is lymphoma cell lines. The experiment in a line: Apoptosis by Annexin V-FITC flow cytometry in lymphoma cell lines. The format is cell-based. As to the method: as §4
The subject of experiment [8] is DHL-4 Non-Hodgkins cell line. The experiment in a line: Combination with doxorubicin in DHL-4. The format is cell-based. As to conditions: administered simultaneously.
For experiment [9], the system named is DLCL2 Non-Hodgkins cell line. The experiment in a line: Combination with doxorubicin in DLCL2. In kind it is cell-based. As to conditions: administered simultaneously.
A further experiment deals with HH cell line. The experiment in a line: Combination with doxorubicin in HH. As to conditions: administered simultaneously. The format is cell-based.

Where only a bound is given, the exact number is not on record here.

In the case of `CN(C)Cc1c(C(=O)NCCOc2ccc(C(=O)NO)cc2)oc2ccccc12` [3-((dimethylamino)methyl)-N-(2-(4-(hydroxycarbamoyl)phenoxy)ethyl)benzofuran-2-carboxamide], the “RAD51 mRNA levels” value in experiment [1] was “downregulating RAD51”. Also, the “RAD51 mRNA change” value in [2] was “no decrease”. Further, the “downregulation of RAD51 mRNA expression” value in experiment [3] (24 hours, most of the cell lines) is reported as “more than 2 fold”. The “decrease in RAD51 mRNA” value in [3] (the five cell lines with >70% apoptosis) is reported as over 4 fold. Besides, the “RAD51 levels in vivo” value in experiment [4] is listed as “downregulating RAD51”. The RAD51 protein levels entry is listed as “downregulated RAD51 protein levels in a dose-dependent manner” in experiment [5], “downregulated RAD51 protein levels” in [5] (listed as 3-((dimethylamino)methyl) -N-(2-(4-(hydroxycarbamoyl)phenoxy)ethyl)benzofuran-2-) and “downregulating RAD51” with RAD51 in HCT116 cells. For the same compound, the “effect on RAD51 protein levels” value in [6] is listed as “least effect”. Moreover, the apoptosis entry with HH lymphoma line is “least % apoptosis”; in the experiment on lymphoma cell lines (at 24 hrs, all the lines) it was “lower levels of apoptosis”. Moreover, the “RAD51 foci in the nuclei” value in [7] is on record as “complete loss”. Further, in the experiment with lymphoma cell lines (48 hour incubation, all the lines except HH), the apoptotic cell death entry is given as “dose-dependent increase in apoptotic cell death”. The “apoptosis following drug treatment” value in the experiment with lymphoma cell lines (five most sensitive cell lines) is given as over 70%. Further, the figures for the “combination effect with doxorubicin” value (in experiment [8]; in experiment [9]; with HH cell line) were “synergistic effects”, “synergistic effects” and “less than additive”, respectively.
